pEC50: −log10 of the molar value.
Key:
Type in all cases: cell-based
MCF-7 = test: Cancer cell growth inhibition, MCF-7; settings: Homo sapiens, MCF7; Breast, MCF-7, cell viability, 72 h
Method: (§1) Cell culture-based assays were used to evaluate the ability of compounds of the invention to inhibit cancer cell growth inhibition.
(§2) Cells were obtained from the American Type Culture Collection (ATCC) and European Collection of Cell Cultures (ECACC).
(§3) Cells were thawed in their appropriate media plus supplements (see table below). Cells were passaged at confluence by washing once in HBSS cation-free followed by a 3 minutes incubation with trypsin ([0.5 μg/ml]/EDTA [0.2 μg/ml]) (Gibco-BRL, 15400054) solution in HBSS at 37° C. (except non-adherent cell lines), and transferred to their appropriate media plus supplements. Prior to seeding at defined cell concentration, cells were recovered in medium, centrifuged and taken up in medium, and counted.
(§4) Cells were plated at 3000/5000/10000 cells/well in 100 μl media in tissue culture 96 well plates (Cultek). After 24 h, media was supplemented by 100 μl/well of diluted IPDNs at 100 μM.
(§5) The Hexosaminidase assay was used for the adherent cell lines, whereas the AlamarBlue® assay was used for the non-adherent cell lines.
(§6) Dose-response curves were generated by serial dilutions (1:1) of the compounds. […] Reagent blanks, containing media plus colorimetric reagent without cells were run on each plate. Blank values were subtracted from test values and were routinely 5-10% of uninhibited control values. Plates were incubated 72 h, and living cell number was determined by AlamarBlue® and Hexosaminidase test. The advantages of using those assays are that both can be done in the same microwell plate. AlamarBlue® assay: plates were incubated 72 h and living cell number was determined by AlamarBlue (Biosource DAL1100). After 4 h incubation at 37° C., relative fluorescent intensity, which correlates with the number of living cells, was read in a Cytofluor plate reader (Millipore) at 535/590 nm (Excitation/emission). The hexosaminidase activity was measured according to the following protocol: the media was removed and cells were washed once with PBS.
(§7) Data analysis was done by calculating the percentage of cell viability normalized in front of negative control values, which were considered as a 100%. The curve was adjusted using a sigmoidal dose-response (variable slope) equation and EC50 values were obtained from the equation
(§8) where, X is the logarithm of concentration. Y is the response. Bottom is the Y value at the bottom plateau Top is the Y value at the top plateau LogEC50 is the X value when the response is halfway between Bottom and Top. With different kinds of variables, this variable is sometimes called ED50 (effective dose, 50%), or IC50 (inhibitory concentration, 50%, used when the curve goes downhill).

T47D = test: Cancer cell growth inhibition, T47D; settings: Homo sapiens, Breast, cell viability, 72 h
Method: as §1, §2, §3, §4, §5, §6, §7, §8

DU-145 = test: Cancer cell growth inhibition, DU-145; settings: Homo sapiens; Prostate, DU-145, cell viability, 72 h
Method: as §1, §2, §3, §4, §5
as §6, with “PBS. […]” for “PBS.”

PC3 = test: Cancer cell growth inhibition, PC3; settings: Homo sapiens, PC-3; Prostate, PC3, cell viability, 72 h
Method: as §1, §2, §3, §4, §5, §6, §7, §8

LnCaP = test: Cancer cell growth inhibition, LnCaP; settings: Homo sapiens, Prostate, cell viability, 72 h
Method: as §1, §2, §3, §4, §5, §6, §7, §8

HCT-116 = test: Cancer cell growth inhibition, HCT-116; settings: Homo sapiens; Colorectal, HCT-116, cell viability, 72 h
Method: as §1, §2, §3, §4, §5, §6, §7, §8

HT-29 = test: Cancer cell growth inhibition, HT-29; settings: Homo sapiens; Colorectal, HT-29, cell viability, 72 h
Method: as §1, §2, §3, §4, §5
as §6, with “PBS. […]” for “PBS.”

Colo205 = test: Cancer cell growth inhibition, Colo205; settings: Homo sapiens, COLO 205; Colorectal, Colo205, cell viability, 72 h
Method: as §1, §2, §3, §4, §5
as §6, with “PBS. […]” for “PBS.”

LoVo = test: Cancer cell growth inhibition, LoVo; settings: Homo sapiens, Colorectal, cell viability, 72 h
Method: as §1, §2, §3, §4, §5
as §6, with “PBS. […]” for “PBS.”

NCI-H1650 = test: Cancer cell growth inhibition, NCI-H1650; settings: Homo sapiens; Lung, NCI-H1650, cell viability, 72 h
Method: as §1, §2, §3, §4, §5
as §6, with “PBS. […]” for “PBS.”

HepG2 = test: Cancer cell growth inhibition, HepG2; settings: Homo sapiens; Liver, HepG2, cell viability, 72 h
Method: as §1, §2
as §3, with “counted. […]” for “counted.”
(§9) Dose-response curves were generated by serial dilutions (1:1) of the compounds. […] Plates were incubated 72 h, and living cell number was determined by AlamarBlue® and Hexosaminidase test. […] AlamarBlue® assay: plates were incubated 72 h and living cell number was determined by AlamarBlue (Biosource DAL1100). After 4 h incubation at 37° C., relative fluorescent intensity, which correlates with the number of living cells, was read in a Cytofluor plate reader (Millipore) at 535/590 nm (Excitation/emission). The hexosaminidase activity was measured according to the following protocol: the media was removed and cells were washed once with PBS. […]

HT-1080 = test: Cancer cell growth inhibition, HT-1080; settings: Homo sapiens; HT-1080, cell viability, 72 h
Method: as §1, §2, §3, §4, §5, §6, §7, §8

MiaPaCa-2 = test: Cancer cell growth inhibition, MiaPaCa-2; settings: Homo sapiens, MIA PaCa-2; Pancreatic, MiaPaCa-2, cell viability, 72 h
Method: as §1, §2, §3, §4, §5, §6, §7, §8

RWPI = test: Cancer cell growth inhibition, RWPI; settings: Pancreatic, cell viability, 72 h
Method: as §1, §2
as §3, with “counted. […]” for “counted.”
as §9

SK-MEL-28 = test: Cancer cell growth inhibition, SK-MEL-28; settings: Homo sapiens; Melanoma, SK-MEL-28, cell viability, 72 h
Method: as §1, §2, §3, §4, §5
as §6, with “PBS. […]” for “PBS.”

143B = test: Cancer cell growth inhibition, 143B; settings: Homo sapiens, Osteosarcoma, cell viability, 72 h
Method: as §1, §2, §3, §4, §5, §6, §7, §8

Daoy = test: Cancer cell growth inhibition, Daoy; settings: Homo sapiens, Brain, cell viability, 72 h
Method: as §1, §2, §3, §4, §5, §6, §7, §8

U-87MG = test: Cancer cell growth inhibition, U-87MG; settings: Homo sapiens, Brain, cell viability, 72 h
Method: as §1, §2, §3, §4, §5, §6, §7, §8

SK-OV-3 = test: Cancer cell growth inhibition, SK-OV-3; settings: Homo sapiens; Ovarian, SK-OV-3, cell viability, 72 h
Method: as §1, §2, §3, §4, §5
as §6, with “PBS. […]” for “PBS.”

OVCAR-3 = test: Cancer cell growth inhibition, OVCAR-3; settings: Homo sapiens; Ovarian, OVCAR-3, cell viability, 72 h
Method: as §1, §2
as §3, with “counted. […]” for “counted.”
as §9

HeLa = test: Cancer cell growth inhibition, HeLa; settings: Homo sapiens, Cervical, cell viability, 72 h
Method: as §1, §2, §3, §4, §5
as §6, with “PBS. […]” for “PBS.”

A-431 = test: Cancer cell growth inhibition, A-431; settings: Homo sapiens; Epidermoid, A-431, cell viability, 72 h
Method: as §1, §2, §3, §4, §5, §6, §7, §8

CCFR-CEM = test: Cancer cell growth inhibition, CCFR-CEM; settings: Hematologic, cell viability, 72 h
Method: as §1, §2, §3, §4, §5, §6, §7, §8

Jurkat = test: Cancer cell growth inhibition, Jurkat; settings: Homo sapiens, Hematologic, cell viability, 72 h
Method: as §1, §2, §3, §4, §5, §6, §7, §8

RAMOS = test: Cancer cell growth inhibition, RAMOS; settings: Homo sapiens, Hematologic, cell viability, 72 h
Method: as §1, §2, §3, §4, §5, §6, §7, §8

RPMI-8226 = test: Cancer cell growth inhibition, RPMI-8226; settings: Homo sapiens; Multiple Myelome, RPMI-8226, cell viability, 72 h
Method: as §1, §2, §3, §4, §5, §6, §7, §8

| pEC50 (MCF-7) | pEC50 (T47D) | pEC50 (DU-145) | pEC50 (PC3) | pEC50 (LnCaP) | pEC50 (HCT-116) | pEC50 (HT-29) | pEC50 (Colo205) | pEC50 (LoVo) | pEC50 (NCI-H1650) | pEC50 (HepG2) | pEC50 (HT-1080) | pEC50 (MiaPaCa-2) | pEC50 (RWPI) | pEC50 (SK-MEL-28) | pEC50 (143B) | pEC50 (Daoy) | pEC50 (U-87MG) | pEC50 (SK-OV-3) | pEC50 (OVCAR-3) | Compound | other results |
| --- | --- | --- | --- | --- | --- | --- | --- | --- | --- | --- | --- | --- | --- | --- | --- | --- | --- | --- | --- | --- | --- |
| 5.21 | 4.96 | 4.80 | 4.29 | 5.32 | 5.24 | 4.96 | 4.80 | 4.92 | 4.96 | 4.72 | 5.01 | 5.26 | 4.60 | 5.32 | 4.72 | 5.38 | 4.89 | 5.39 | 5.14 | COc1cc(OC)c2c(-c3ccc(O)cc3)cn(CC(=O)c3ccc(O)cc3)c2c1 [Example 6, 1-(4-hydroxyphenyl)-2-[3-(4-hydroxyphenyl)-4,6-dimethoxy-1H-indol-1-yl]ethanone] | pEC50 (HeLa): 5.16; pEC50 (A-431): 4.96; pEC50 (CCFR-CEM): 5.20; pEC50 (Jurkat): 5.72; pEC50 (RAMOS): 5.18; pEC50 (RPMI-8226): 5.19 |
| 4.39 | 4.51 | 4.19 | 4.08 | 4.37 | 4.43 | 4.18 | 4.51 | 4.30 | 4.12 | 4.36 | 4.28 | 4.21 | 4.34 | 4.23 | 4.51 | 4.30 | 4.02 | 4.36 | 4.33 | O=C(Cn1cc(-c2ccc(O)cc2)c2c(F)cc(F)cc21)c1ccc(O)cc1 [Example 16, 2-[4,6-difluoro-3-(4-hydroxyphenyl)-1H-indol-1-yl]-1-(4-hydroxyphenyl) ethanone] | pEC50 (HeLa): 4.17; pEC50 (A-431): 4.18; pEC50 (CCFR-CEM): 4.24; pEC50 (Jurkat): 4.52; pEC50 (RAMOS): 4.46; pEC50 (RPMI-8226): 4.19 |

From US20150336889A1, “INDOLE DERIVATIVES, PHARMACEUTICAL COMPOSITIONS CONTAINING SUCH INDOLES AND THEIR USE AS DNA METHYLATION MODULATORS” (IKERCHEM, S.L., priority 2012, published 2015)
